Results taken from ChEMBL document CHEMBL4130385, “Structure-function studies of BPP-BrachyNH2 and synthetic analogues thereof with Angiotensin I-Converting Enzyme” (Eur J Med Chem, 2017).

Columns and labels:
[1] = target: T1, Angiotensin-converting enzyme (Rattus norvegicus, UniProt P47820); assay: Inhibition of Wistar rat plasma angiotensin 1-converting enzyme using H-hippuryl-His-Leu-OH as substrate after 20 mins by fluorescence assay
T1 sequence (P47820 whole entry): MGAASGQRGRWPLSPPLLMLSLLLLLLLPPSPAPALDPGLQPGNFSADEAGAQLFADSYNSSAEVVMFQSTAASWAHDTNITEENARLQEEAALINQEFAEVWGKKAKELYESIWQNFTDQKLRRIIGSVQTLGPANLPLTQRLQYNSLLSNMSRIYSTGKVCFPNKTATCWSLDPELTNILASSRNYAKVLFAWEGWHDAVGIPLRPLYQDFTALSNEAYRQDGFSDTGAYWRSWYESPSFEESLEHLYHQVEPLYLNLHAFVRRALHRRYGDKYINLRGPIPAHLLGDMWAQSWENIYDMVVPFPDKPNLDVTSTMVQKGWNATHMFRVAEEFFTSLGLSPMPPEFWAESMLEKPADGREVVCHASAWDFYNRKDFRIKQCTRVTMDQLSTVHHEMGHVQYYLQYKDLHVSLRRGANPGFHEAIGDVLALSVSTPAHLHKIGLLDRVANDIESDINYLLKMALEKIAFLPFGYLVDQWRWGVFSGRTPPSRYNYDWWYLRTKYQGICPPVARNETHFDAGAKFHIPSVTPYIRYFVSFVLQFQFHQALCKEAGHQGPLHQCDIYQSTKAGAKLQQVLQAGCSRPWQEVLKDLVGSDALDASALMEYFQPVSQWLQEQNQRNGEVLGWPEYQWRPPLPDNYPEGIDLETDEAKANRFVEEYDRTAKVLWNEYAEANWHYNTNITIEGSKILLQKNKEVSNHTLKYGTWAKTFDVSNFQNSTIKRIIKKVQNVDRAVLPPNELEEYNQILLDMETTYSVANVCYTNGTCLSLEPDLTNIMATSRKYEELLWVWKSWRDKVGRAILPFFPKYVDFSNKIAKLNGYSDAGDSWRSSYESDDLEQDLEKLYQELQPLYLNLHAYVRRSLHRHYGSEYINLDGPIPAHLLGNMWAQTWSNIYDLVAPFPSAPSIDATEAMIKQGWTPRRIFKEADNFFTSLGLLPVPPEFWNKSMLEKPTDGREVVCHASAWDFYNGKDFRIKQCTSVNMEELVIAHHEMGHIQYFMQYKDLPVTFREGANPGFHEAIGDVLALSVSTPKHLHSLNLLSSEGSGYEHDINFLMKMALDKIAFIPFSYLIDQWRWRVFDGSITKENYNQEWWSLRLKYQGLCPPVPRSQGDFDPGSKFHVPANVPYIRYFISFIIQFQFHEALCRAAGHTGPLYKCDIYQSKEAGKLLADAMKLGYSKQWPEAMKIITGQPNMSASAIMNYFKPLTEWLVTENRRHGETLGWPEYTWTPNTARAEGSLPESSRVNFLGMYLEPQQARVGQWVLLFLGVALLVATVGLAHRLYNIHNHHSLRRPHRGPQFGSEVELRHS

[2] = (§1) Cytotoxicity against BALB/c mouse peritoneal macrophages assessed as reduction in cell viability after 48 hrs by MTT assay; type: cell-based, Peritoneal macrophage; details: BALB/c, peritoneal macrophages
Peritoneal macrophage [3] = assay: as §1; type: cell-based; details: peritoneal macrophage, 48 h
Erythrocyte = assay: Hemolytic activity against sheep blood erythrocytes at 10^-6 to 10^-4 M after 1 hr; type: ADME, cell-based, Ovis aries
Peritoneal macrophage [4] = assay: Cytotoxicity against BALB/c mouse peritoneal macrophages assessed as reduction in cell viability at 10^-4 M after 48 hrs by MTT assay relative to control; type: cell-based; details: 100 µM
Peritoneal macrophage [5] = assay: Cytotoxicity against BALB/c mouse peritoneal macrophages assessed as reduction in cell viability at 5 x 10^-4 M after 48 hrs by MTT assay relative to control; type: cell-based; details: 500 µM

H-PPPKVSP-NH2
IC50 [1]: 17.5 µM
CC50 at 48 h [2]: 81.9 µM
Activity (Peritoneal macrophage [3]): Dose-dependent effect
Activity (Erythrocyte): Non-Toxic

H-WPPPKVS-NH2
IC50 [1]: 162 µM
CC50 at 48 h [2]: 33600 µM
Activity (Erythrocyte): Non-Toxic
Activity (Peritoneal macrophage [4]): 7.7%
Activity (Peritoneal macrophage [5]): 14.8%

H-WPPPKVSP-NH2
IC50 [1]: 5.51 µM
CC50 at 48 h [2]: 176 µM
Activity (Peritoneal macrophage [3]): Dose-dependent effect
Activity (Erythrocyte): Non-Toxic
